Laboratory results: patent US8871460B2, “Gamma-secretase modulatory compounds, methods for identifying same, and uses therefor” (Neurogenetic Pharmaceuticals, Inc., priority 2009, dated 2014)

Key:
[1] = system: Pen-2; assay: Compound 1-conjugated Affi-Gel resin pull-down from CHO-APPSwe whole-cell lysate, immunoblot; type: binding, Chinese Hamster
Method: (§1) Compound 1, which bears a primary amine, was conjugated to Affi-Gel 10 resin (BioRad #153-6046) according to manufacturer's instructions. Compound 1 was dissolved in DMSO to a final concentration of 15 mg/ml. One ml of compound was mixed with approximately 1 ml of resin previously equilibrated in isopropanol. The compound and resin were rotated at room temperature for approximately 3 hr, washed with DMSO and the remaining unreacted groups were blocked with ethanolamine. The efficiency of coupling was generally greater than 80%, as determined by LC-MS analysis, with approximately 10-15 μmol of compound per ml of resin final concentration.
(§2) Solubilized whole-cell lysates from CHO-APPSwe cells (Chinese Hamster Ovary cells expressing human APP^695 with the K670N/M671L “Swedish” mutation) were prepared in PLC buffer (20 mM Hepes pH 7.5, 1 mM EDTA, 150 mM NaCl, 1% Triton X-100, 0.2% Tween-20). Lysates were pre-cleared by incubating with 200 μl of blocked resin at 4° C. for 1 hr. The resin was pelleted and the resulting lysate was centrifuged at 13,000×g for 15 min to pellet any protein precipitates. One mg (approximately 2 mg/ml) of the pre-cleared whole cell lysate was incubated with 100 μl of either Compound 1-conjugated resin, or with unconjugated resin, for two hours at room temperature, with constant rotation. After incubation, the resin was pelleted at low speed and the supernatant (i.e. unbound proteins) collected. The resin was washed 3-5 times with 1 ml of PLC buffer. Bound proteins were eluted with 200-300 μl aliquots of SDS denaturing sample buffer (0.25 M Tris-HCl, pH 6.8; 5% (w/v) SDS; 0.05% bromophenol blue; 10% glycerol; 2.5% 2-mercaptoethanol). Equal volumes of whole cell lysate (WCL) and supernatant in SDS denaturing sample buffer, as well as eluates from each resin, were run in separate lanes on a 4-20% SDS-PAGE gel. The electrophoresed proteins were transferred to a nitrocellulose membrane (Invitrogen #LC2001) and immunoblotted with antibodies that specifically recognize either Pen-2 (PNT2; gift of Gopal Thinakaran, see Luo et al. (2003), J. Biol. Chem. 278:7850-7854), presenilin 1 N-terminal fragment (PS1-NTF; gift of Gopal Thinakaran), presenilin 1 C-terminal fragment (PS1-CTF; Calbiochem #529592), nicastrin (Nct; Sigma #N-1660), amyloid precursor protein (APP; antibody R8666, PCT publication WO 04/018997) or phopholipase C-gamma (PLCγ; Upstate #06-152).

[2] = system: nicastrin (Nct); assay: as above; type: binding, Chinese Hamster
Method: as §1, §2

[3] = system: phopholipase C-gamma (PLCγ); assay: as above; type: binding, Chinese Hamster
Method: as §1, §2

[4] = system: presenilin 1 C-terminal fragment (PS1-CTF); assay: as above; type: binding, Chinese Hamster
Method: as §1, §2

[5] = system: presenilin 1 N-terminal fragment (PS1-NTF); assay: as above; type: binding, Chinese Hamster; details: some present in eluate, not substantially depleted from starting lysate
Method: as §1, §2

[6] = biological target: T1, APP holoenzyme (APP-Holo) (Homo sapiens, UniProt P05067, K670N/M671L); assay: as above; type: binding
T1 construct: expressed in transfected cells; host or cells: CHO (Chinese Hamster Ovary)
Method: as §1
Solubilized whole-cell lysates from CHO-APPSwe cells (Chinese Hamster Ovary cells expressing human APP^695 with the K670N/M671L “Swedish” mutation) were prepared in PLC buffer (20 mM Hepes pH 7.5, 1 mM EDTA, 150 mM NaCl, 1% Triton X-100, 0.2% Tween-20). Lysates were pre-cleared by incubating with 200 μl of blocked resin at 4° C. for 1 hr. The resin was pelleted and the resulting lysate was centrifuged at 13,000×g for 15 min to pellet any protein precipitates. One mg (approximately 2 mg/ml) of the pre-cleared whole cell lysate was incubated with 100 μl of either Compound 1-conjugated resin, or with unconjugated resin, for two hours at room temperature, with constant rotation. […]

[7] = biological target: T2, Pen-2 (Homo sapiens, UniProt Q9NZ42); assay: Binding of Compound 1 to Pen-2 in lysates prepared from PS1-deficient cells
T2 construct: endogenous in cells; host or cells: PS1-deficient cells (not further described)

[8] = biological target: T3, GST (Schistosoma japonicum, UniProt P08515); assay: Compound 1-conjugated Affi-Gel resin binding of isolated protein, immunoblot
T3 construct: purchased Abnova Corp
Method: (§3) Prior to assessing binding to Compound 1, the proteins used in the binding assay were characterized. Purified GST (Abnova Corp) and GST-Pen2 (Abnova Corp #H00055851-PO1) proteins were confirmed to react with anti-GST (Novagen #71097-3) and anti-Pen-2 (PNT2) antibodies on an immunoblot. […] To prepare purified Pen-2, about 1 μg of GST-Pen-2 was incubated with 4 μg of PreScission™ protease for 4 hr at 4° C. in Cleavage Buffer (50 mM Tris pH 7.4, 150 mM NaCl, 1 mM EDTA, 1% Triton X-100, 10% glycerol, 1 mg/ml phosphatidylcholine). Free GST and protease were removed by adding glutathione resin (Sigma #G4510) for 1 hr with rotation, and spinning down the resin. The supernatant, containing purified Pen-2, was collected.
(§4) Compound 1-conjugated and unconjugated Affi-Gel 10 resins were prepared essentially as described in Example 1. […]

[9] = biological target: T4, Purified Pen-2 (Homo sapiens, UniProt Q9NZ42); assay: as above; details: elute lane, vs unconjugated resin
T4 construct: GST (N, cleaved yes); purchased Abnova Corp H00055851-PO1
Method: as §3, §4

[10] = biological target: GST-Pen2 (Homo sapiens, UniProt Q9NZ42); assay: as above; parameters: purchased Abnova Corp H00055851-PO1; details: elute lane, vs unconjugated resin
Method: as §3, §4

T4 sequence (Q9NZ42 whole entry): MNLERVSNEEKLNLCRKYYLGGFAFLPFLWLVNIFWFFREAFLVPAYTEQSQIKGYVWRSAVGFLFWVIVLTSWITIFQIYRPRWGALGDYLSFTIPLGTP
T2 sequence (Q9NZ42 whole entry): as above
Chain of GST-Pen2 (Q9NZ42 whole entry): as above
T3 sequence (P08515 whole entry): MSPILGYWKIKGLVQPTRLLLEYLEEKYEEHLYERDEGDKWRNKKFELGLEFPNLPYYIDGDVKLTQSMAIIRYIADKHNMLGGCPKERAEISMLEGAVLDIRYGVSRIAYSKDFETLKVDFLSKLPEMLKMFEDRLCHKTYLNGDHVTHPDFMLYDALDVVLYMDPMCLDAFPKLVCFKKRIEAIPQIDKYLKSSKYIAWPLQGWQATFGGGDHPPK
T1 sequence (P05067 other isoform, or with tags, fused parts or gaps K595N/M596L): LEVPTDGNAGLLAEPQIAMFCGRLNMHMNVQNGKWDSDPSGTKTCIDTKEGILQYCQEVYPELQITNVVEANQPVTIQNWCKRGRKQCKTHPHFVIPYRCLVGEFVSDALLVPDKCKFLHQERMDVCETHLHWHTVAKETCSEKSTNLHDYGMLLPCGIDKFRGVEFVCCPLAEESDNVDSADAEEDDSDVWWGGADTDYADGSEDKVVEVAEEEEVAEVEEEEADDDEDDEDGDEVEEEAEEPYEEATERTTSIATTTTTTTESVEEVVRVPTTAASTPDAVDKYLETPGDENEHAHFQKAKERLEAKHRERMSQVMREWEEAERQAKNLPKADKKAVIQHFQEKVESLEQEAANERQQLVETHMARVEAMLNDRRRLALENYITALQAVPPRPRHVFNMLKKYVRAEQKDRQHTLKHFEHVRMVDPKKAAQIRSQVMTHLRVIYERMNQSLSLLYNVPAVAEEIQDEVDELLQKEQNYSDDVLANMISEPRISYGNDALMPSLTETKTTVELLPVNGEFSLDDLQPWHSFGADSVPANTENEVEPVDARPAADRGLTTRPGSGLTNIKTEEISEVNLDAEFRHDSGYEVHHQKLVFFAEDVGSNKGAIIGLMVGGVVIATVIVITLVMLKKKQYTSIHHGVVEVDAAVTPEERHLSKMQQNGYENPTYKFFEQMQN

Structure (SMILES): Cc1cn(-c2ccc(-c3csc(Nc4cc(C(C)C)c(OCCN)cc4C)n3)cc2F)cn1 [Compound 1]
- depletion of Pen-2 from whole cell lysate applied to the Compound 1-conjugated column [1]: substantially depleted
- Pen-2 in SDS eluate from resin ([1]; Compound 1-conjugated vs unconjugated Affi-Gel 10 resin, 2 h room temperature): present in the SDS eluate from the Compound 1-conjugated resin, but not from the unconjugated resin
- binding of Nct to Compound 1-conjugated resin [2]: did not bind
- binding of PLCγ to Compound 1-conjugated resin [3]: did not bind
- binding of PS1-CTF to Compound 1-conjugated resin [4]: did not bind
- binding of N-terminal fragment (NTF) of PS1 to Compound 1 [5]: minimal binding
- binding of APP-Holo to Compound 1-conjugated resin [6]: did not bind
- binding to Pen-2 present in lysates prepared from PS1-deficient cells [7]: demonstrated binding
- binding of GST to Compound 1 resin [8]: did not bind
- binding of purified Pen-2 to Compound 1-conjugated resin [9]: selectively bind
- binding of GST-Pen-2 to Compound 1-conjugated resin [10]: selectively bind
